Experimental data published in US20170190705A1, “Compositions and Methods for Inhibiting BMP” (THE BRIGHAM AND WOMAN'S HOSPITAL, INC., priority 2014, published 2017).

Columns and labels:
Type in all cases: biochemical
KIT = KIT (Homo sapiens, UniProt P10721); assay: Kinome profiling KIT; details: read-out: Inhibitory activity KIT; for inhibition at 0.1 µM: 100 nM
Method: (§1) . The kinome-wide selectivity was determined following the methods previously reported by Mohedas et al., ACS Chem Biol 2013, 8, 1291-1302 and Sanvitale et al., PLoS One 2013, 8, e62721.

MARK4 = biological target: T1, MARK4 (Homo sapiens, UniProt Q96L34); assay: Kinome profiling MARK4; details: read-out: Inhibitory activity MARK4; for inhibition at 0.1 µM: 100 nM
T1 sequence (Q96L34 1-752): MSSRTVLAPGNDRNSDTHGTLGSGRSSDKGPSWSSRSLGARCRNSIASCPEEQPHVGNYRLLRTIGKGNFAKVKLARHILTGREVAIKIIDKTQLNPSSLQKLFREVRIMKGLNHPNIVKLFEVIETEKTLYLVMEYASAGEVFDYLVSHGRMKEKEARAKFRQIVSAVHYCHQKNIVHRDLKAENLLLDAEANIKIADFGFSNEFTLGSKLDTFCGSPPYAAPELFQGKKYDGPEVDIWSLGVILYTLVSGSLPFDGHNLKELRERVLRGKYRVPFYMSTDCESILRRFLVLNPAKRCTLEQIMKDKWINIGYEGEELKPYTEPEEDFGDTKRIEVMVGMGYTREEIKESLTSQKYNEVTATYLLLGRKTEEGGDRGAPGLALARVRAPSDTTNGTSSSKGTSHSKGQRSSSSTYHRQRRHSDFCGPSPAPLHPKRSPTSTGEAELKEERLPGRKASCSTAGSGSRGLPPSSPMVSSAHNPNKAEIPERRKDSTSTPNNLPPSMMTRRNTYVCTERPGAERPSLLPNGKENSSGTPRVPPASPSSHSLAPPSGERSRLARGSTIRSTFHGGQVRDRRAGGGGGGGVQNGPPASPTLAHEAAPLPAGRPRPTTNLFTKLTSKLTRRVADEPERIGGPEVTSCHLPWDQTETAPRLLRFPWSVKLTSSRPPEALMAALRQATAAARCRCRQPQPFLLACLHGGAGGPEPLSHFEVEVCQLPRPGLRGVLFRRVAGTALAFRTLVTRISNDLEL
Method: as §1

AKT1 = AKT1 (Homo sapiens, UniProt P31749); assay: Kinome profiling AKT1; details: read-out: Inhibitory activity AKT1; for inhibition at 0.1 µM: 100 nM
Method: as §1

TYRO3 = biological target: T2, TYRO3 (Homo sapiens, UniProt Q06418); assay: Kinome profiling TYRO3; details: read-out: Inhibitory activity TYRO3; for inhibition at 0.1 µM: 100 nM
T2 sequence (Q06418 41-890): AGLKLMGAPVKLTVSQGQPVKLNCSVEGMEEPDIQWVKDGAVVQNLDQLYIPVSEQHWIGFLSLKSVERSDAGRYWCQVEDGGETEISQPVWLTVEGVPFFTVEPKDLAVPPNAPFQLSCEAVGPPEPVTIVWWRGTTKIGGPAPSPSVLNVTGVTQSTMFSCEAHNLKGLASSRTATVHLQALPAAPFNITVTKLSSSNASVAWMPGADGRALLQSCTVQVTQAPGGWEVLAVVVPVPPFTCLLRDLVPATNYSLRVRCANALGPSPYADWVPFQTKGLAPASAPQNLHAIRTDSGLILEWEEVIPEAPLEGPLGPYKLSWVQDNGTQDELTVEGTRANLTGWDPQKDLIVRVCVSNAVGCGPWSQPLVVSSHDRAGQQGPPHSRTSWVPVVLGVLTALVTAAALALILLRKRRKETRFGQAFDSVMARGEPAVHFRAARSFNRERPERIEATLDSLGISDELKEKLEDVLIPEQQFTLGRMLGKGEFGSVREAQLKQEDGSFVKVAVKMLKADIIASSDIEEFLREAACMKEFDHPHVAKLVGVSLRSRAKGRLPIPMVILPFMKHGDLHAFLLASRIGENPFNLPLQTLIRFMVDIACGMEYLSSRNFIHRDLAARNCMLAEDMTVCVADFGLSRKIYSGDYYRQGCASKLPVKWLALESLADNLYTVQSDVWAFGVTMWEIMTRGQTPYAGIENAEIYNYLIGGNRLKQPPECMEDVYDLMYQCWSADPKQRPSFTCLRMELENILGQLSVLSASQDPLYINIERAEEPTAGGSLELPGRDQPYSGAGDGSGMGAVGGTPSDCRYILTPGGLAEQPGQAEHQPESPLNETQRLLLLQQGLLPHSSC
Method: as §1

MAPKAPK3 = MAPKAPK3 (Homo sapiens, UniProt Q16644); assay: Kinome profiling MAPKAPK3; details: read-out: Inhibitory activity MAPKAPK3; for inhibition at 0.1 µM: 100 nM
Method: as §1

CK1-γ2 = CK1-γ2 (Homo sapiens, UniProt P78368); assay: Kinome profiling CK1-γ2; details: read-out: Inhibitory activity CK1-γ2; for inhibition at 0.1 µM: 100 nM
Method: as §1

ERB-B2 = ERB-B2 (Homo sapiens, UniProt P04626); assay: Kinome profiling ERB-B2; details: read-out: Inhibitory activity ERB-B2; for inhibition at 0.1 µM: 100 nM
Method: as §1

SGK1 = biological target: T3, SGK1 (Homo sapiens, UniProt O00141); assay: Kinome profiling SGK1; details: read-out: Inhibitory activity SGK1; for inhibition at 0.1 µM: 100 nM
T3 sequence (O00141 1-431): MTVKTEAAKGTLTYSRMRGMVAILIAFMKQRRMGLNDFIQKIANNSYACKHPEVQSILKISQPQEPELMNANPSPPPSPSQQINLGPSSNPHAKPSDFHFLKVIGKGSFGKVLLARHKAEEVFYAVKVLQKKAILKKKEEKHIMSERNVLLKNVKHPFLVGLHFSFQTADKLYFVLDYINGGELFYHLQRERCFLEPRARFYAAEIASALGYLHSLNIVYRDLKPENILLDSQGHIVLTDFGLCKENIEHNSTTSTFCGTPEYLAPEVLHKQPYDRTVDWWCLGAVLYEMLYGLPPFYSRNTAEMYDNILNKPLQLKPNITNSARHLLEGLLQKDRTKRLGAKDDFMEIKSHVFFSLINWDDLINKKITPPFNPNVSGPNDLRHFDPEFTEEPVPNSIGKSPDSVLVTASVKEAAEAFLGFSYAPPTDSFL
Method: as §1

RON = RON (Homo sapiens, UniProt Q04912); assay: Kinome profiling RON; details: read-out: Inhibitory activity RON; for inhibition at 0.1 µM: 100 nM
Method: as §1

AKT1, sequence (P31749 whole entry): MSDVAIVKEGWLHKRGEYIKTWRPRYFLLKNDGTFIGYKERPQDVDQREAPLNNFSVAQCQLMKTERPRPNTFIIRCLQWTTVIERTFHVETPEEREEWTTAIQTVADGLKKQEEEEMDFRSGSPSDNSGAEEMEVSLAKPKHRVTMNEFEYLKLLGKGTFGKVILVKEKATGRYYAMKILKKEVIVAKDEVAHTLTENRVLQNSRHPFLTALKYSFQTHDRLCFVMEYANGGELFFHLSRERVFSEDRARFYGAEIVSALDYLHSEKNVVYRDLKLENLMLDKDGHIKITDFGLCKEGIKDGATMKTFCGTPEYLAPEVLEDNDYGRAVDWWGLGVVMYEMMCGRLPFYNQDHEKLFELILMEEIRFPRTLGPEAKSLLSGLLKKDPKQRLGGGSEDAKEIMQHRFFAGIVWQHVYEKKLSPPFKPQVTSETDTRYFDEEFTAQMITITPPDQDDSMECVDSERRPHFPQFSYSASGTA
CK1-γ2, sequence (P78368 whole entry): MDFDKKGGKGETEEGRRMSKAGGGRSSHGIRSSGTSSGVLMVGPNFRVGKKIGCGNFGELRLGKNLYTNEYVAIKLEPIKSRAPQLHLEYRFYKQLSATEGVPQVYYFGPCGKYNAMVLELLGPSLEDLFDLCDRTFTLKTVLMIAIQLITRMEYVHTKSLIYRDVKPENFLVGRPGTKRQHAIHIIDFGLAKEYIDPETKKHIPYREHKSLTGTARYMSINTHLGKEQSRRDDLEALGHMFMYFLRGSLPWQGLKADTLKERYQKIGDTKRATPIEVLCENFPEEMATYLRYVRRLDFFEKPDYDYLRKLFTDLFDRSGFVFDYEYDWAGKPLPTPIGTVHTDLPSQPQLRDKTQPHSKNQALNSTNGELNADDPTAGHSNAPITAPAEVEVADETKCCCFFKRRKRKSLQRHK
MAPKAPK3, sequence (Q16644 whole entry): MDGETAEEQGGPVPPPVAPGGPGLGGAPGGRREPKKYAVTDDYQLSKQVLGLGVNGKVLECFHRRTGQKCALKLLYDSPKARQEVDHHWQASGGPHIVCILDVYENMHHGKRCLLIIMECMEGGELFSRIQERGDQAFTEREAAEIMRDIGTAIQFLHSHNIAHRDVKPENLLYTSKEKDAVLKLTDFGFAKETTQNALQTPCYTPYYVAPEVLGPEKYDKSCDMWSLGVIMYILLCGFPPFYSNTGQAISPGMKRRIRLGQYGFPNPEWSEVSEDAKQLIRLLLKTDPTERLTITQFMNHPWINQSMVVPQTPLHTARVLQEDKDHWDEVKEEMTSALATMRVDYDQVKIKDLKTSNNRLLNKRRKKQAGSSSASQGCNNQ
KIT, sequence (P10721 26-976): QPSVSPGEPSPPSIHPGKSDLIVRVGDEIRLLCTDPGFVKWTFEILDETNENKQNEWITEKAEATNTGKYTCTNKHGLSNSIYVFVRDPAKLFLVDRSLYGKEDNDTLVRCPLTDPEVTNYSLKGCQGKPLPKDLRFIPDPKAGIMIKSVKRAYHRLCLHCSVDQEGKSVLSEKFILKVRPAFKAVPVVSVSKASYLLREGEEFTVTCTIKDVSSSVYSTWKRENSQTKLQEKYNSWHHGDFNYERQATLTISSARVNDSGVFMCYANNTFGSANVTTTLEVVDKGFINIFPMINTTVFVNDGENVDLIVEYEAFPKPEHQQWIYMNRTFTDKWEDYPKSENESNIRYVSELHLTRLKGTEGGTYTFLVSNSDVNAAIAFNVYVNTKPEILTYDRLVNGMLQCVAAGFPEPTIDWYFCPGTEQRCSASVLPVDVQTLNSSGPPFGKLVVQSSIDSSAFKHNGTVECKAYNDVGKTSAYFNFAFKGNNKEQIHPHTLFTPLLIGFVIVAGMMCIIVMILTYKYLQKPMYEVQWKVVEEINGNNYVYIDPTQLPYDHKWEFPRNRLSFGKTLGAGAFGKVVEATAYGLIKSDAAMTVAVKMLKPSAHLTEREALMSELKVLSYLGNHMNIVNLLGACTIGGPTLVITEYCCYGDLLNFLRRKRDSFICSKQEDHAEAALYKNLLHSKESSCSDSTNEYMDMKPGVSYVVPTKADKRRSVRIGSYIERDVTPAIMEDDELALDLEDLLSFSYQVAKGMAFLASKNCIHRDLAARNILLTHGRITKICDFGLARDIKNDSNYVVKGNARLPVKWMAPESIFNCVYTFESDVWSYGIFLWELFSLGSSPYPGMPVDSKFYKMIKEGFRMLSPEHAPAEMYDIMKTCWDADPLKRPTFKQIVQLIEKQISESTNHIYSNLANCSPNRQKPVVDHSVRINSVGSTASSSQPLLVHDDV
ERB-B2, sequence (P04626 23-1255): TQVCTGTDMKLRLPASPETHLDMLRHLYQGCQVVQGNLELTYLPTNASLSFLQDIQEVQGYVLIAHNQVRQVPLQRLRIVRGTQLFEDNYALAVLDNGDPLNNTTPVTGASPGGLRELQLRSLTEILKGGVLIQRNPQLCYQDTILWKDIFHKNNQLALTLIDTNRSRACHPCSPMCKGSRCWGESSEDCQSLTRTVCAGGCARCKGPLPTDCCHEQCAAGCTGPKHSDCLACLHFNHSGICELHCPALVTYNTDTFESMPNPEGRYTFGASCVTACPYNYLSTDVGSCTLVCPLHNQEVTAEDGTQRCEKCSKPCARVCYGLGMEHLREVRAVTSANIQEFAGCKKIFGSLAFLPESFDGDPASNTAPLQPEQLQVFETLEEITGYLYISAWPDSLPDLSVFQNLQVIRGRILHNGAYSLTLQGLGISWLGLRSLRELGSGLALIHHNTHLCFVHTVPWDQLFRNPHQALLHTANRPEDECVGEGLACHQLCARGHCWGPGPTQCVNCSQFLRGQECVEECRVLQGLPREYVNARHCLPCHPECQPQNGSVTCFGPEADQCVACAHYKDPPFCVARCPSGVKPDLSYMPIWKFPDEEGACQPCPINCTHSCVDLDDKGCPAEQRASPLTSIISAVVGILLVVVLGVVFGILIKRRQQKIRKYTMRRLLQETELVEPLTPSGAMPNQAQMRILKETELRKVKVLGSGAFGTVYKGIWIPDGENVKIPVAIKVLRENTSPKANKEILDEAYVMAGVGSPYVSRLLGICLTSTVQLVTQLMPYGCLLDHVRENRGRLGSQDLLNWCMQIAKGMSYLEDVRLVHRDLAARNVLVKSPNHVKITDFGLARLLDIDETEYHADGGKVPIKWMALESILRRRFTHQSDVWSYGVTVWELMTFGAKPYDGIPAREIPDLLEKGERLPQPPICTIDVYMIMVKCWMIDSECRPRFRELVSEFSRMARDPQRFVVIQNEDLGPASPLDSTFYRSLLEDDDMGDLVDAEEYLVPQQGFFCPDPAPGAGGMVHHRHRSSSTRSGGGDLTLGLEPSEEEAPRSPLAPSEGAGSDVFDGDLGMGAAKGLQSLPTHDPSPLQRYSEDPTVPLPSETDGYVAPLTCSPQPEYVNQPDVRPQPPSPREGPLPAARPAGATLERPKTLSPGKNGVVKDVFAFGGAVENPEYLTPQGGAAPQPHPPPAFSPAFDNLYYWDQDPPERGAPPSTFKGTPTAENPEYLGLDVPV
RON, sequence (Q04912 25-1400): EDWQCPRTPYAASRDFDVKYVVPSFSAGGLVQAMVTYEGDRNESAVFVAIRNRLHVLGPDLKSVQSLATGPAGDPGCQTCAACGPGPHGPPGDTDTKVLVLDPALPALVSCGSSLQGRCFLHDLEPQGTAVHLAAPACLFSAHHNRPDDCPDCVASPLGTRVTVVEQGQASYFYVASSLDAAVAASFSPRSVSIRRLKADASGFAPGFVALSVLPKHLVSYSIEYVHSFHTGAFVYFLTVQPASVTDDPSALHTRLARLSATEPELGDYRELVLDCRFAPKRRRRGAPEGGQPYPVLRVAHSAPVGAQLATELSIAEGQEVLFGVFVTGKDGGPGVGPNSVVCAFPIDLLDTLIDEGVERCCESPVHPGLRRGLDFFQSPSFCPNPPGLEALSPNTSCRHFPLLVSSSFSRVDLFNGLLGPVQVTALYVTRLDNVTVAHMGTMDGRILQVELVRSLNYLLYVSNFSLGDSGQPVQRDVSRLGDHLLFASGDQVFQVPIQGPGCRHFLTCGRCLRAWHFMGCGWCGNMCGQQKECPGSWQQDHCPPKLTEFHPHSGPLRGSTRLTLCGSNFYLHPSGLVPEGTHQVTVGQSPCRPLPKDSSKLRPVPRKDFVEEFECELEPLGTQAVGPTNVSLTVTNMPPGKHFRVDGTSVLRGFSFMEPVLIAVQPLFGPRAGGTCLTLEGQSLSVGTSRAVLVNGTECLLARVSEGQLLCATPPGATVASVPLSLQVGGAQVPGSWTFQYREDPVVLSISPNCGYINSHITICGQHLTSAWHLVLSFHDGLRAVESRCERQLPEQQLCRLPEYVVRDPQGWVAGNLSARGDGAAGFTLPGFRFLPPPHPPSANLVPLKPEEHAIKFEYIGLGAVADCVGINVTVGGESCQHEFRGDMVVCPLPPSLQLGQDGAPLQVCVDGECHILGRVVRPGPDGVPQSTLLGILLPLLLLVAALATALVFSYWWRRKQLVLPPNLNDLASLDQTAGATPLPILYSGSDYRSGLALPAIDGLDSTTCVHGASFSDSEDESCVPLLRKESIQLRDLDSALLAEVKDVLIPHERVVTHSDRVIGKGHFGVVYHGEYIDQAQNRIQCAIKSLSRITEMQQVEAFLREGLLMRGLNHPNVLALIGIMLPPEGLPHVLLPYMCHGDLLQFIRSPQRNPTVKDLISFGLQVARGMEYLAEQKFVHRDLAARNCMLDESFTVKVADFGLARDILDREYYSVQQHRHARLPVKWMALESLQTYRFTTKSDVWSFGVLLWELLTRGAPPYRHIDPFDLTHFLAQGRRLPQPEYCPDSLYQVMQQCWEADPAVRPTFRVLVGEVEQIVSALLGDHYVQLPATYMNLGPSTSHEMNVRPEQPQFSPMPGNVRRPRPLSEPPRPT

SMILES | inhibition at 0.1 µM (KIT) | inhibition at 1 µM (KIT) | inhibition at 0.1 µM (MARK4) | inhibition at 1 µM (MARK4) | inhibition at 0.1 µM (AKT1) | inhibition at 1 µM (AKT1) | inhibition at 0.1 µM (TYRO3) | inhibition at 1 µM (TYRO3) | inhibition at 0.1 µM (MAPKAPK3) | inhibition at 1 µM (MAPKAPK3) | inhibition at 0.1 µM (CK1-γ2) | inhibition at 1 µM (CK1-γ2) | inhibition at 0.1 µM (ERB-B2) | inhibition at 1 µM (ERB-B2) | inhibition at 0.1 µM (SGK1) | inhibition at 1 µM (SGK1) | inhibition at 0.1 µM (RON) | inhibition at 1 µM (RON)
COc1cc(-c2cc(-c3ccc(N4CCNCC4)cc3)cnc2C)cc(OC)c1OC [Compound 10, 1-(4-(6-methyl-5-(3,4,5-trimethoxyphenyl)pyridin-3-yl)phenyl)piperazine] | 5% | 12% | 1% | 2% | 0% | 0% | 4% | 21% | -1% | 0% | 1% | 4% | 0% | 3% | 2% | 1% | 2% | 6%
COc1cc(-c2cc(-c3ccc(N4CCNCC4)cc3)cnc2N)cc(OC)c1OC [Compound 15, 5-(4-(piperazin-1-yl)phenyl)-3-(3,4,5-trimethoxyphenyl)pyridin-2-amine] | 5% | 22% | 5% | 40% | 0% | 2% | 23% | 75% | 1% | 1% | 3% | 12% | 0% | 5% | 3% | 1% | 3% | 17%
